Data published in patent publication US20160206674A1, “FRUIT EXTRACTS AND EXTRACT FORMULATIONS OF CANARIUM ODONTOPHYLLUM AS ACTIVES AND RELATED INVENTION EMBODIMENTS” (BIOTROPICS MALAYSIA BHD, priority 2013, published 2016).

Legend:
[1] = molecular target: T1, human recombinant PDE2A1 (Homo sapiens, UniProt O00408); test: AlphaScreen cGMP PDE assay, PDE2; assay type: biochemical; conditions: n = 3
T1 construct: FLAG (N); purchased BPS Bioscience 0021
Procedure: (§1) Phosphodiesterase inhibitory activity of the test items prepared according to the procedure in example 2 and outlined in table 2 were measured using the AlphaScreen® assay technology. Materials and methods were according to technical instructions given by Perkin Elmer (www.perkinelmer.com; “Application note “AlphaScreen cGMP Phosphodiesterase Assay Using AlphaScreen cGMP Supplement with Anti-cGMP Antibody”; Authors: Martin Boissonneault, Christian Fafard, Joe Trometer, Chantal Illy, Stéphane Parent, and Roger Bossé; PerkinElmer Life and Analytical Sciences, 710 Bridgeport Avenue, Shelton, Conn. 06484 USA).
(§2) The AlphaScreen cGMP PDE assay used PerkinElmer's AlphaScreen cGMP supplement with antibody (cat. no. 6760308M or 6760308R) which consists of a biotinylated cGMP derivative and an anti-cGMP antibody. The assay also requires the AlphaScreen Protein A detection kit (PerkinElmer cat. no. 6760617), composed of Protein A acceptor beads and Streptavidin donor beads. The human recombinant PDE5A (N-terminal GST, cat no 60050) and PDE2A1 (N-terminal FLAG tag, cat no 0021) were purchased from BPS Bioscience, San Diego, United States. […]
(§3) 1—Add 5 μL of inhibitor* * Please note that for compound screening purposes, adding […] of test compounds to 4.5 μL of cGMP substrate solution prepared in the PDE reaction Buffer is recommended. […] 2—Add 5 μL of PDE (5U per well) 3—Incubate 120 minutes at 23° C. for enzymatic cleavage of unlabeled cGMP 4—Add 5 μL of the AlphaScreen cGMP Supplement (1 nM final) 5—Add 10 μL Detection mix (anti-cGMP antibody/Streptavidin-Donor beads (20 μg/mL final)/Protein A-Acceptor beads (20 μg/mL final)) 6—Incubate the plate for 1 hour at room temperature in the dark and detect the AlphaScreen signal using the microplate analyzer PHERAstar reader.

[2] = molecular target: T2, human recombinant PDE5A (Homo sapiens, UniProt O76074); test: AlphaScreen cGMP PDE assay, PDE5; assay type: biochemical; conditions: n = 3
T2 construct: GST (N); purchased BPS Bioscience 60050
Procedure: as §1, §2, §3

T1 sequence (O00408 1-920 isoform O00408-2): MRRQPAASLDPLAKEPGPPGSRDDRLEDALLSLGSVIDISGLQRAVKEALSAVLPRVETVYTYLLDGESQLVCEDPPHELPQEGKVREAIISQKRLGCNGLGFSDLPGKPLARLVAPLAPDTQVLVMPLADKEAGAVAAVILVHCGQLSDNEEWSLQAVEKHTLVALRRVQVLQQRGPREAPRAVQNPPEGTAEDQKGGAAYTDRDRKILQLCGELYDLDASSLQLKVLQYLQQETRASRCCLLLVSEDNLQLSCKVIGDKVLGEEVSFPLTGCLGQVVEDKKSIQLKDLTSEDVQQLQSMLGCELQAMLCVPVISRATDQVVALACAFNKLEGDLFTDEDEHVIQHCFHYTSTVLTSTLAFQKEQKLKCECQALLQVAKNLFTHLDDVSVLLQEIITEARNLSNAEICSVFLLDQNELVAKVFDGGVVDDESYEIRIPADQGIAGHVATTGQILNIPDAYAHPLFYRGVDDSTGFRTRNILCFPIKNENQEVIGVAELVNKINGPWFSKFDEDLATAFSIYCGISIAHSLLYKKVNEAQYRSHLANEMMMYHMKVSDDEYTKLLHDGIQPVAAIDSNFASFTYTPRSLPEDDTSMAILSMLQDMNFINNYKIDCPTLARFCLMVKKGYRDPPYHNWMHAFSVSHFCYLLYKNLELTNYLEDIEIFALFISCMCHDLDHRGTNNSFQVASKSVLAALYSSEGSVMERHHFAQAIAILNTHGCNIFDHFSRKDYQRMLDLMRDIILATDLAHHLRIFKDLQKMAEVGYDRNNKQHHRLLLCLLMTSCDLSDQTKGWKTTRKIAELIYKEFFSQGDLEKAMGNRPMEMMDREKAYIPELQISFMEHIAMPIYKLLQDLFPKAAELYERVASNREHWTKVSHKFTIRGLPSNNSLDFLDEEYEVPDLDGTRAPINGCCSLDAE

Row | % inhibition of PDE-2 ([1]; Reference at 10 μM) [%] | % inhibition of PDE-2 ([1]; reference at 1 μM) [%] | % inhibition of PDE-2 ([1]; reference at 5 μM) [%] | inhibition at 1 µM ([2]; reference at 1 μM) [%] | inhibition at 5 µM ([2]; reference at 5 μM) [%] | inhibition at 19 µM ([2]; reference at 19 μM) [%] | Compound
1 | 98 | 33 | 73 | – | – | – | CCCCCCC(C(C)O)n1cnc2c(N)ncnc21.Cl (stereo not drawn) [EHNA]
2 | – | – | – | 57 | 81 | 88 | CCCOc1ccccc1-c1nc2nn[nH]c2c(=O)[nH]1 [Zaprinast]
